Measurements taken from patent US7964531B2, “3-phenoxy-4-pyridazinol derivatives and herbicidal composition containing the same” (Mitsui Chemicals Agro, Inc., priority 2001, dated 2011).

SMILES	melting point
Oc1cc(Cl)nnc1Oc1cccc2c1CCC2 [Compound No. 506, 6-Chloro-3-(2,3-dihydro-1H-inden-4-yloxy)-4-pyridazinol]	230 to 232 °C
CC1CCc2c(Oc3nnc(Cl)cc3O)cccc21 (stereo not drawn) [Compound No. 510, 6-Chloro-3-[(1-methyl-2,3-dihydro-1H-inden-4-yl)oxy]-4-pyridazinol]	228 to 230 °C
CC1(C)Cc2cccc(Oc3nnc(Cl)cc3O)c2C1 [Compound No. 513, 6-Chloro-3-[(2,2-dimethyl-2,3-dihydro-1H-inden-4-yl)oxy]-4-pyridazinol]	220 to 223 °C
Oc1cc(Cl)nnc1Oc1cccc2c1C1CC1C2 (stereo not drawn) [Compound No. 515, 3-(1,1a,6,6a-Tetrahydrocyclopropa[a]inden-2-yloxy)-6-chloro-4-pyridazinol]	245 to 247 °C
Oc1cc(Cl)nnc1Oc1cccc2c1CC1CC21 (stereo not drawn) [Compound No. 516, 3-(1,1a,6,6a-Tetrahydrocyclopropa[a]inden-5-yloxy)-6-chloro-4-pyridazinol]	211 to 213 °C
Oc1cc(Cl)nnc1Oc1cccc2c1CCCC2 [Compound No. 521, 6-Chloro-3-(5,6,7,8-tetrahydro-1-naphthalenyloxy)-4-pyridazinol]	232 to 237 °C
Oc1cc(Cl)nnc1Oc1cccc2ccccc12 [Compound No. 527, 6-Chloro-3-(1-naphthyloxy)-4-pyridazinol]	243 to 245 °C
Oc1cc(Cl)nnc1Oc1cccc2c1CCO2 [Compound No. 528, 6-Chloro-3-(2,3-dihydro-1-benzofuran-4-yloxy)-4-pyridazinol]	219 to 221 °C
CC1COc2cccc(Oc3nnc(Cl)cc3O)c21 (stereo not drawn) [Compound No. 529, 6-Chloro-3-[(3-methyl-2,3-dihydro-1-benzofuran-4-yl)oxy]-4-pyridazinol]	238 to 245 °C
Oc1cc(Cl)nnc1Oc1cccc2occc12 [Compound No. 531, 3-(1-benzofuran-4-yloxy)-6-chloro-4-pyridazinol]	220 to 225 °C
Cc1coc2cccc(Oc3nnc(Cl)cc3O)c12 [Compound No. 532, 6-Chloro-3-[(3-methyl-1-benzofuran-4-yl)oxy]-4-pyridazinol]	218 to 225 °C
Oc1cc(Cl)nnc1Oc1cccc2sccc12 [Compound No. 534, 3-(1-Benzothien-4-yloxy)-6-chloro-4-pyridazinol]	181 to 183 °C
Cc1nc2c(Oc3nnc(Cl)cc3O)cccc2o1 [Compound No. 538, 6-Chloro-3-[(2-methyl-1,3-benzoxazol-4-yl)oxy]-4-pyridazinol]	221 to 222 °C
CC1(C)Cc2cccc(Oc3nnc(Cl)cc3O)c2O1 [Compound No. 540, 6-Chloro-3-[(2,2-dimethyl-2,3-dihydro-1-benzofuran-7-yl)oxy]-4-pyridazinol]	228 to 229.5 °C
Oc1cc(Cl)nnc1Oc1cccc2ccoc12 [Compound No. 541, 3-(1-Benzofuran-7-yloxy)-6-chloro-4-pyridazinol]	201 to 202 °C
Oc1cc(Cl)nnc1Oc1cccc2c1OCO2 [Compound No. 544, 3-(1,3-Benzodioxol-4-yloxy)-6-chloro-4-pyridazinol]	206 to 211 °C
Cc1nc2cccc(Oc3nnc(Cl)cc3O)c2o1 [Compound No. 549, 6-Chloro-3-[(2-methyl-1,3-benzoxazol-7-yl)oxy]-4-pyridazinol]	197 to 202 °C
Oc1cc(Cl)nnc1Oc1ccc(Cl)cc1Cl [Compound No. 552, 6-Chloro-3-(2,4-dichlorophenoxy)-4-pyridazinol]	233 to 237 °C
Cc1cc(F)ccc1Oc1nnc(Cl)cc1O [Compound No. 557, 6-Chloro-3-(4-fluoro-2-methylphenoxy)-4-pyridazinol]	249 to 250 °C
Cc1cc(Cl)ccc1Oc1nnc(Cl)cc1O [Compound No. 558, 6-Chloro-3-(4-chloro-2-methylphenoxy)-4-pyridazinol]	235 to 235.5 °C
CCc1cc(I)ccc1Oc1nnc(Cl)cc1O [Compound No. 562, 6-Chloro-3-(2-ethyl-4-iodophenoxy)-4-pyridazinol]	199 to 201 °C
CC(C)c1cc(Br)ccc1Oc1nnc(Cl)cc1O [Compound No. 566, 3-(4-Bromo-2-isopropylphenoxy)-6-chloro-4-pyridazinol]	215 to 225 °C
Cc1ccc(Oc2nnc(Cl)cc2O)c(C(C)(C)C)c1 [Compound No. 567, 3-(2-tert-Butyl-4-methylphenoxy)-6-chloro-4-pyridazinol]	230 to 236 °C
Cc1ccc(Cl)cc1Oc1nnc(Cl)cc1O [Compound No. 618, 6-Chloro-3-(5-chloro-2-methylphenoxy)-4-pyridazinol]	174 to 180 °C
Cc1ccc(C)c(Oc2nnc(Cl)cc2O)c1 [Compound No. 621, 6-Chloro-3-(2,5-dimethylphenoxy)-4-pyridazinol]	80 to 83 °C
Cc1ccc(C(C)C)cc1Oc1nnc(Cl)cc1O [Compound No. 623, 6-Chloro-3-(5-isopropyl-2-methylphenoxy)-4-pyridazinol]	168 to 169 °C

SMILES	melting point
Cc1ccc(C(=O)O)cc1Oc1nnc(Cl)cc1O [Compound No. 626, 3-[(6-Chloro-4-hydroxy-3-pyridazinyl)oxy]-4-methylbenzoic acid]	238 to 240 °C
Cc1ccc(N(C)C)cc1Oc1nnc(Cl)cc1O [Compound No. 628, 6-Chloro-3-[5-(dimethylamino)-2-methylphenoxy]-4-pyridazinol]	181 to 182 °C
COc1ccc(C)c(Oc2nnc(Cl)cc2O)c1 [Compound No. 629, 6-Chloro-3-(5-methoxy-2-methylphenoxy)-4-pyridazinol]	170 to 172 °C
CCc1ccc(OC)cc1Oc1nnc(Cl)cc1O [Compound No. 635, 6-Chloro-3-(2-ethyl-5-methoxyphenoxy)-4-pyridazinol]	124 to 126 °C
Cc1ccc(C(C)C)c(Oc2nnc(Cl)cc2O)c1 [Compound No. 640, 6-Chloro-3-(2-isopropyl-5-methylphenoxy)-4-pyridazinol]	193 to 195 °C
CC(C)c1cc(Oc2nnc(Cl)cc2O)cc(C(C)C)c1 [Compound No. 642, 6-Chloro-3-(3,5-diisopropylphenoxy)-4-pyridazinol]	231 to 235 °C
CC(C)(C)c1ccc(C(C)(C)C)c(Oc2nnc(Cl)cc2O)c1 [Compound No. 653, 6-Chloro-3-(2,5-di-tert-butylphenoxy)-4-pyridazinol]	249 to 258 °C
Oc1cc(Cl)nnc1Oc1cc(F)ccc1C1CC1 [Compound No. 658, 6-Chloro-3-(2-cyclopropyl-5-fluorophenoxy)-4-pyridazinol]	227 to 228 °C
Oc1cc(Cl)nnc1Oc1cc(Cl)ccc1C1CC1 [Compound No. 659, 6-Chloro-3-(5-chloro-2-cyclopropylphenoxy)-4-pyridazinol]	194 to 195 °C
Cc1ccc(C2CC2)c(Oc2nnc(Cl)cc2O)c1 [Compound No. 662, 6-Chloro-3-(2-cyclopropyl-5-methylphenoxy)-4-pyridazinol]	150 to 159 °C
CC(C)c1ccc(C2CC2)c(Oc2nnc(Cl)cc2O)c1 [Compound No. 664, 6-Chloro-3-(2-cyclopropyl-5-isopropylphenoxy)-4-pyridazinol]	211 to 212 °C
N#Cc1ccc(C2CC2)c(Oc2nnc(Cl)cc2O)c1 [Compound No. 667, 3-[(6-Chloro-4-hydroxy-3-pyridazinyl)oxy]-4-cyclopropylbenzonitrile]	211 to 212 °C
CC=Cc1ccc(F)cc1Oc1nnc(Cl)cc1O [Compound No. 679, 6-Chloro-3-[5-fluoro-2-(1-propenyl)phenoxy]-4-pyridazinol]	210 to 217 °C
CC=Cc1ccc(Cl)cc1Oc1nnc(Cl)cc1O [Compound No. 680, 6-Chloro-3-[5-chloro-2-(1-propenyl)phenoxy]-4-pyridazinol]	221 to 224 °C
CN(C)c1ccc(C=O)c(Oc2nnc(Cl)cc2O)c1 [Compound No. 692, 2-[(6-Chloro-4-hydroxy-3-pyridazinyl)oxy]-4-(dimethylamino)benzaldehyde]	124 to 127 °C
COc1ccc(F)cc1Oc1nnc(Cl)cc1O [Compound No. 700, 6-Chloro-3-(5-fluoro-2-methoxyphenoxy)-4-pyridazinol]	187 to 191 °C
COc1ccc(Cl)cc1Oc1nnc(Cl)cc1O [Compound No. 701, 3-(5-Chloro-2-methoxyphenoxy)-6-chloro-4-pyridazinol]	143 to 155 °C
COc1ccc(Br)cc1Oc1nnc(Cl)cc1O [Compound No. 702, 3-(5-Bromo-2-methoxyphenoxy)-6-chloro-4-pyridazinol]	135 to 137 °C
COc1ccc(C)cc1Oc1nnc(Cl)cc1O [Compound No. 704, 6-Chloro-3-(2-methoxy-5-methylphenoxy)-4-pyridazinol]	126 to 134 °C
COc1ccc(C#N)cc1Oc1nnc(Cl)cc1O [Compound No. 707, 3-[(6-Chloro-4-hydroxy-3-pyridazinyl)oxy]-4-methoxybenzonitrile]	187 to 192 °C
COc1ccc(OC)c(Oc2nnc(Cl)cc2O)c1 [Compound No. 709, 6-Chloro-3-(2,5-dimethoxyphenoxy)-4-pyridazinol]	150 to 152 °C
Oc1cc(Cl)nnc1Oc1c(F)cccc1F [Compound No. 710, 6-Chloro-3-(2,6-difluorophenoxy)-4-pyridazinol]	209 to 213 °C
CCCc1cccc(F)c1Oc1nnc(Cl)cc1O [Compound No. 716, 6-Chloro-3-(2-fluoro-6-propylphenoxy)-4-pyridazinol]	134 to 137 °C
CC(C)c1cccc(F)c1Oc1nnc(Cl)cc1O [Compound No. 717, 6-Chloro-3-(2-fluoro-6-isopropylphenoxy)-4-pyridazinol]	215 to 220 °C
Oc1cc(Cl)nnc1Oc1c(F)cccc1C1CC1 [Compound No. 719, 6-Chloro-3-(2-cyclopropyl-6-fluorophenoxy)-4-pyridazinol]	200 to 203 °C
